Patent US9149480B2, “Use of meloxicam for the long-term treatment of musculoskeletal disorders in cats” (Boehringer Ingeleheim Vetmedica GmbH, priority 2010, dated 2015)

Tested on: cats
Assay: Retrospective study of long-term meloxicam treatment in aged cats with osteoarthritis: progression of renal disease versus matched untreated controls
Format: in vivo, cat
Settings: for progression of renal disease: maintenance dose of 0.02 mg/kg; for progression of renal parameters: median maintenance dose 0.02 mg/kg daily; for loss of urine concentrating ability / weight loss: time adjusted AUC change from baseline, Wilcoxon rank-sum-test
Excerpt: The medical records of a feline-only practice were searched for cats with OA being treated with meloxicam during a 4 year period. A diagnosis of OA was based upon any two of the following: owner noted mobility changes and/or physical examination findings or radiographic changes. Cats included were older than 7 years and treated with meloxicam for a duration of more than 6 months. Complete medical records were available for review. Biochemistry, urinalysis and body weight were regularly monitored. The progression of renal disease in the aged non-renal and renal group treated was compared to age matched and IRIS matched untreated controls from the same clinic.
The database of a feline-only practice in suburban Melbourne was searched for cats which had been treated for chronic musculoskeletal disorders with meloxicam (Metacam oral suspension, Boehringer Ingelheim) during a 4 year period. The diagnosis of osteoarthritis or spondylosis deformans had been made based upon any two of the following: owner noted mobility changes, physical examination findings or radiographic changes. The inclusion criteria included cats greater than 7 years old which had been treated continuously with meloxicam for a duration of more than 6 months and which had complete medical records available for review. In addition, cats were only included if serum biochemistry, urine analysis and body weight had been regularly monitored.
Young cats were excluded, as were cats with no pre-treatment renal parameter measurements. In addition cats were also excluded if the owner could not be contacted to check that the cats were still receiving daily treatment with meloxicam.
Age, breed, sex, concomitant diseases and medications as well as date treatment commenced, treatment duration and daily dose of meloxicam were recorded.
The presence or absence of pre-treatment renal disease and staging of the renal disease was carried out using plasma creatinine and urine specific gravity according to the following recognised International Renal Interest Society criteria (IRIS staging 2006):
The treated cats were then subdivided into two groups: the renal treated group that belonged to IRIS stage 1-3 and were pre-treated, and the non-renal treated group that has no identifiable renal disease pre-treatment. Urine specific gravity, serum creatinine and bodyweight were used as indicators of renal disease progression. The progression of renal disease was then compared to age and IRIS matched untreated controls were then randomly identified from the database of the same clinic.
The median age of the renal and non-renal treated cats, median treatment duration and median maintenance dose was calculated.
The progression of renal disease in the non-renal treated group was compared to the age matched untreated controls. The progression of renal disease in the treated renal-diseased group was compared to age matched and IRIS matched untreated controls from the same clinic. Statistical analysis was carried out using a time adjusted area-under-the-curve (AUC) changes from baseline time 0 until the last recorded value (n).
The Wilcoxon rank-sum-test was used to compare the groups. With this nonparametric test the distribution of the adjusted AUC of two groups was compared regarding the location. Under the null hypothesis it is assumed that there is no location shift in the distributions of the two treatment groups. If the resulting p-value is lower than the two-sided significance level of 5% the null hypothesis is rejected.

[1] = non-renal group treated with meloxicam vs non-renal group not treated
[2] = renal group treated with meloxicam vs age and IRIS matched untreated renal group

progression of renal parameters (non-renal group treated with meloxicam vs non-renal group not treated, median treatment duration 400 days): no differences
loss of urine concentrating ability [1]: no statistically significant differences
weight loss [1]: no statistically significant differences
progression of renal parameters (renal group (IRIS stage 1-3) treated with meloxicam vs age and IRIS matched untreated renal group, median treatment duration 527 days): no differences
loss of urine concentrating ability [2]: no statistically significant differences
weight loss [2]: no statistically significant differences
SMILES: Cc1cnc(NC(=O)C2=C(O)c3ccccc3S(=O)(=O)N2C)s1 [meloxicam]
progression of renal disease (aged cats with pre-existent stable IRIS stage 1-3 renal disease): does not hasten progression of renal disease
progression of renal disease (aged cats): does not hasten progression of renal disease
median maintenance dose after dose titration to the lowest effective dose (daily, oral suspension, both the renal treated and non-renal treated groups): 0.02 mg/kg
mean serum creatinine concentration increase over time (renal group treated with meloxicam vs renal untreated group): increased statistically significantly less
